Measured values reported in patent publication US20210284618A1, “FURANOCHALCONES AS INHIBITORS OF CYP1A1, CYP1A2 AND CYP1B1 FOR CANCER CHEMOPREVENTION” (Council of Scientific & Industrial Research, priority 2016, published 2021).
“And” between values parts separate entries of the source, which are not always exact repeats. Equal values may be shown once.

What was measured:
CYP1B1 = target: T1, CYP1B1 (Homo sapiens, UniProt Q16678); experiment: In-vitro CYP450 1B1 enzyme inhibition in Saccharosomes; type: biochemical; parameters: purchased CYP Design Ltd; host or cells: yeast microsomes (Saccharosomes)
T1 sequence (Q16678 1-543): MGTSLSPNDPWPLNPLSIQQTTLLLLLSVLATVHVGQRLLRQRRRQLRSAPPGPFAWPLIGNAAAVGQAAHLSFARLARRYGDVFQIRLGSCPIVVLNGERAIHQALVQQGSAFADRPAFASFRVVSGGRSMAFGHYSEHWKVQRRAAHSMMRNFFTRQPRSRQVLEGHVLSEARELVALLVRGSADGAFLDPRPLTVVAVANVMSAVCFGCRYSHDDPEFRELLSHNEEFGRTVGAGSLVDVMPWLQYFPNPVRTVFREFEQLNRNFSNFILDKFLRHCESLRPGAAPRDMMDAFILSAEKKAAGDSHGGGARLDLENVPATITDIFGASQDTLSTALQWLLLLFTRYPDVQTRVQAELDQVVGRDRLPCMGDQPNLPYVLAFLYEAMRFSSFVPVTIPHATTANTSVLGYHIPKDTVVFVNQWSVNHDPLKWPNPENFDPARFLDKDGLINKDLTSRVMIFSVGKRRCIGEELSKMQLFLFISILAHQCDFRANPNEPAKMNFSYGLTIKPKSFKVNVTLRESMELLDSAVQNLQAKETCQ
Method: Example 24. In-vitro CYP450 1B1 enzyme inhibition in Saccharosomes™: Regenerating system consists of: 5 μl Solution A (183 mg of NADP++183 mg of glucose-6-phosphate+654 μl of 1.0 M magnesium chloride solution+9.15 ml of sterile ultra-pure water)+1 μl Solution B (250 Units of glucose-6-phosphate dehydrogenase+6.25 ml of 5 mM sodium citrate; mixed in a tube and made up to 10 ml with sterile ultra-pure water)+39 μl 0.2 M Kpi (0.6 ml of 1.0M K2HPO4+9.4 ml of 1.0 M KH2PO4 were mixed and made up to 50 ml with sterile ultra-pure water)+5 μl potential inhibitory compound.
(§1) Example 25. IC50 determination for best compound against CYP1A1, CYP1B1 and other CYPs in Saccharosomes. Compounds were serially diluted to six different concentrations with 10% DMSO in a Sero-Well white microplate. The experiment was performed in a similar way as described above in examples 23 and 24.

CYP1A1 = target: T2, CYP1A1 (Homo sapiens, UniProt P04798); experiment: In-vitro CYP450 1A1 enzyme inhibition in Saccharosomes; type: biochemical
T2 construct: host or cells: yeast microsomes (Saccharosomes)
T2 sequence (P04798 1-512): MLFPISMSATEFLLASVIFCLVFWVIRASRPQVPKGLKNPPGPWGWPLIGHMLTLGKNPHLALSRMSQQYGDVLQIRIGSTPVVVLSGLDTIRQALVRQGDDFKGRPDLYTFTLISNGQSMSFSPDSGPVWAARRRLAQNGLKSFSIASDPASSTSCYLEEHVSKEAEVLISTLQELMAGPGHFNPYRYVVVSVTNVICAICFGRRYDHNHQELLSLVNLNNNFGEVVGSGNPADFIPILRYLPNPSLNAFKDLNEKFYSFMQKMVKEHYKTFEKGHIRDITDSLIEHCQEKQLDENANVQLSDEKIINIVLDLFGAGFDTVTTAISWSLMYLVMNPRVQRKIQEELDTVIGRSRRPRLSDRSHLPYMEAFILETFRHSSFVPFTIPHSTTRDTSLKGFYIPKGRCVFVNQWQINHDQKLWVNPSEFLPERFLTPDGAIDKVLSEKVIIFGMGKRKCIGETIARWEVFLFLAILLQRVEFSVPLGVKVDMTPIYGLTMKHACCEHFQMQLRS
Method: Example 23. In-vitro CYP450 1A1 enzyme inhibition in Saccharosomes™: The screening method utilizes 384-well microplates to rapidly ascertain relative percentage inhibition of CYP1A1 by a library of compounds. Each reaction was performed in black, clear-bottomed 384-well microplates. A reaction volume of 50 μl comprised of 0.5 pmol of the cytochrome P450 CYP1A1 (Saccharosomes), 5 μM of ethoxyresorufin substrate (which contributes 0.05% DMSO to the well), 10 μM of potential inhibitor test article (which contributes 0.5% DMSO to the well), A P450 reductase NADPH regenerating system (1.3 mM NADP+, 3.3 mM glucose-6-0.02 units phosphate and glucose-6-Phosphate dehydrogenase), potassium phosphate buffer (final well concentration 100 mM, pH 7.4) and water. Very small quantities of magnesium chloride and sodium citrate are added to the NADPH regenerating system, in line with standard published protocols. The potential inhibitor (test article) was pre-incubated with CYP1A1 of at least 20 minutes at 30° C. After this period, the remainder of the reagents required in the assay was added to initiate the process. The reaction mixture was incubated for another 20 minutes at 30° C. The reaction was stopped by adding an 80% acetonitrile, 20% 0.5 M Tris solution. The reactions were monitored using the Biotek Synergy HT plate reader by measuring the endpoint reaction at Excitation 530/(25 bandwidth) & Emission 590/(20 bandwidth) using a gain/sensitivity setting of 60. The mean of the quadruplicates of the negative control (solvent inactivated CYP1A1) was deducted from the mean of potential inhibitor (test article) samples. The percentage was then derived relative to the mean of the wells without inhibitor.
as §1

CYP2C9 = target: T3, CYP2C9 (Homo sapiens, UniProt P11712); experiment: CYP2C9 inhibition in Saccharosomes; type: biochemical; conditions: Saccharosomes containing CYP2C9
T3 construct: host or cells: yeast microsomes (Saccharosomes)
T3 sequence (P11712 whole entry): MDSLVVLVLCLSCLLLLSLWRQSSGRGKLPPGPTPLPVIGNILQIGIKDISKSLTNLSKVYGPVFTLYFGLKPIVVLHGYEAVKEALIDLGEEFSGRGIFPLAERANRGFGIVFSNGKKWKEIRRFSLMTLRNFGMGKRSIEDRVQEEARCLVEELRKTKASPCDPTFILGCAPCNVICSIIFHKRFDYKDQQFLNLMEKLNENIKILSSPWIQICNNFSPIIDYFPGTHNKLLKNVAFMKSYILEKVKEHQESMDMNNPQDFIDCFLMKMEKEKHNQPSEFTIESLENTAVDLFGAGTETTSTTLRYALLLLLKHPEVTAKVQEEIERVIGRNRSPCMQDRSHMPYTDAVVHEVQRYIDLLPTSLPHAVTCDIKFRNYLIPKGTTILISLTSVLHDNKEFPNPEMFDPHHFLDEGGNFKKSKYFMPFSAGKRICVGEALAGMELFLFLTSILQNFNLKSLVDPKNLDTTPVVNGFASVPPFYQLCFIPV

CYP2E1 = target: T4, CYP2E1 (Homo sapiens, UniProt P05181); experiment: CYP2E1 inhibition in Saccharosomes; type: biochemical
T4 construct: host or cells: yeast microsomes (Saccharosomes)
T4 sequence (P05181 whole entry): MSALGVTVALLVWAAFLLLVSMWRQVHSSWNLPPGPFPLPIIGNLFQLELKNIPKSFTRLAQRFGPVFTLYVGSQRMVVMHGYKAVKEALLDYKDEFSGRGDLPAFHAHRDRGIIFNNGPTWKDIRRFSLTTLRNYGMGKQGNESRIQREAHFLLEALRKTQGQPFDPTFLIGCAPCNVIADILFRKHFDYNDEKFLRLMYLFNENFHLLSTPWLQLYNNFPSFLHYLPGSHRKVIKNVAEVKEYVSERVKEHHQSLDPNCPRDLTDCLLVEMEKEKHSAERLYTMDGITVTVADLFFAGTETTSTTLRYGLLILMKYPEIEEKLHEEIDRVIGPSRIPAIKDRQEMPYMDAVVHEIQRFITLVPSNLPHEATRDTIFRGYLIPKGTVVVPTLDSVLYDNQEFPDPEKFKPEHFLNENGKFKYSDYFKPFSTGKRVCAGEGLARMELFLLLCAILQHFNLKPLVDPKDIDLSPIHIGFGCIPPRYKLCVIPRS
Method: as §1

CYP2C8 = target: T5, CYP2C8 (Homo sapiens, UniProt P10632); experiment: CYP2C8 inhibition in Saccharosomes; type: biochemical; conditions: Saccharosomes containing CYP2C8
T5 construct: host or cells: yeast microsomes (Saccharosomes)
T5 sequence (P10632 1-490): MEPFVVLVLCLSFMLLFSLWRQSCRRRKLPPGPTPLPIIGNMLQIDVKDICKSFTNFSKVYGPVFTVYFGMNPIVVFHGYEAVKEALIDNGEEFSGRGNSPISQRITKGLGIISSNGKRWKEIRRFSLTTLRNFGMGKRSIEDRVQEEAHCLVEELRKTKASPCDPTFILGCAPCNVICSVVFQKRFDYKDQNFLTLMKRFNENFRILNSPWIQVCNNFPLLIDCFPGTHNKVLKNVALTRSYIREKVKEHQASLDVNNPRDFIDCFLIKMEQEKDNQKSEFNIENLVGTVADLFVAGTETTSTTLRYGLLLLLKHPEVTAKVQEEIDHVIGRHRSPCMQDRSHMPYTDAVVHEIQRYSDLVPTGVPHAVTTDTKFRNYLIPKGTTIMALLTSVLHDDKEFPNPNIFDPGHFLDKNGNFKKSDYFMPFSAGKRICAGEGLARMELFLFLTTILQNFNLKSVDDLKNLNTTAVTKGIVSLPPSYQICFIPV

**Q.** For `COc1c(C(=O)/C=C/c2cccnc2)c(O)c(OC)c2occc12` [Compound 8, 3-(4,7-dimethoxy-6-hydroxybenzofuran-5-yl)-1-(pyridin-3-yl)-3-oxopropene], which IC50 (CYP1B1) is on record?
**A.** 660 nM

**Q.** What about the “% inhibition of CYP1B1 in Saccharosomes at 10 μM” value (CYP1B1; 10 μM test compound, 7-ethoxyresorufin, 10 µM) of the same compound?
**A.** 80.3%

**Q.** And the inhibition at 10 μM (CYP1B1; human, Saccharosomes (yeast-derived) with recombinant CYP1B1, probe 7-ethoxyresorufin (5 μl of 0.1 mM), % inhibition of CYP1B1 in Saccharosomes at 10 μM, 10 μM test compound, 7-ethoxyresorufin)?
**A.** > 80%

**Q.** What about the IC50 (CYP1A1) of the same compound?
**A.** 342 nM

**Q.** And the “% inhibition of CYP1A1 in Saccharosomes at 10 μM” value (CYP1A1; 10 μM test compound, 5 μM ethoxyresorufin)?
**A.** 97% and 97.2%

**Q.** What about the inhibition at 20 min, 10 μM (CYP1A1; human, Saccharosomes containing CYP1A1, pH 7.4, probe ethoxyresorufin (5 μM), % inhibition of CYP1A1 in Saccharosomes at 10 μM, 10 μM test compound, 5 μM ethoxyresorufin) of the same compound?
**A.** > 80%

**Q.** And the inhibition at 20 µM (CYP2C9)?
**A.** 62%

**Q.** And the “Inhibition of CYP2E1 at 10 μM” value (CYP2E1)?
**A.** No Inhibition

**Q.** What about the melting point of the same compound?
**A.** 112 to 114 °C

**Q.** What about the inhibition at 20 µM (CYP2C8) of the same compound?
**A.** 24%
